Test results as given in patent US20250177473A1, “PEPTIDE REGULATORS OF METABOLISM” (Metabico, Inc., priority 2022, published 2025).

Key:
[1] = tested on: C57BL/6 mice on a high-fat diet; assay: Visceral fat weight and adipocyte histology after chronic administration in HFD mice; assay type: in vivo, mouse; settings: four weeks
Protocol: (§1) Groups of 10 animals were formed from the existing groups from Stage 2, with similar mean body weight (Table 6). The animals' bodyweight was monitored three times a week, water, and feed consumption—weekly. After the last treatment, the animals were euthanized for necropsy and their blood collected. The internal organs were examined for the presence of macro damage and weighed. The adipose tissue surrounding the epididymis was evaluated as a marker of obesity in animals. For histological examination, samples of adipose tissue and liver tissue were fixed in 10% formalin solution for further histological analysis.
After necropsy, the following internal organs were weighed: adrenal glands, kidneys, liver, pancreas, heart, spleen, and testicles.
During necropsy, the body's external state, internal surfaces, the cranial cavity, chest, abdominal and pelvic cavities with organs and tissues located in them, the neck with organs and tissues, the skeleton, and the musculoskeletal system were examined. The organs and tissues were fixed in 10% formalin. […]
Microscopic analysis was performed using a DMLA Leica transmitted light microscope (Germany), a Photometrics Cool SNAP cf video camera (USA), and Mekos software (Russia). […] One hundred adipocytes were measured on sections of the visceral fat samples in 15-20 random fields of view.

[2] = tested on: C57BL/6 mice on a high-fat diet; assay: Blood serum glucose, HOMA-IR and TNF-α after chronic administration in HFD mice; assay type: in vivo, mouse; settings: metformin 250 mg/kg p.o.
Protocol: as §1
At the end of the study, the animals were euthanized. […]
Blood serum was analyzed for glucose concentration using the Randox GB reagent kit on an automatic biochemical analyzer Sapphire-400 (Tokyo Boeki LTD, Japan), following the manufacturer's instructions.
Insulin concentration in blood serum samples was measured by enzyme immunoassay using a standard commercial kit, following the manufacturer's instructions. […] Based on the obtained data on the concentration of insulin and glucose measured in animals before necropsy, the derived parameter of insulin resistance HOMA-IR was calculated using the formula: […]
The concentration of proinflammatory cytokine TNFa and IL1 was measured in blood serum samples by ELISA using standard commercial kits, following the manufacturer's instructions. […]

`CN(C)C(=N)N=C(N)N` [Metformin] was tested. Which “decrease in average linear size of visceral fat adipocytes compared to HFD control” value ([1]; Metformin 250 mg/kg p.o.) did it give?
The value was 31%.

And the “visceral fat (adipose tissue surrounding the epididymis) weight” value ([1]; EPSI 5 mg/kg i.p. and i.n., metformin 250 mg/kg p.o., vs HFD control)?
The value was “statistically significant decrease”.

What about the “glucose concentration in the blood vs HFD control group” value ([2]; 4 weeks, EPSI 5 mg/kg i.p. and i.n.) of the same compound?
The value was “decrease”.

What about the “TNF-α concentration in blood serum vs HFD control” value ([2]; four weeks, EPSI 5 mg/kg i.n.) of the same compound?
The value was “reduced”.
